The supplement of paper PMC10307832

Columns and labels:
Assay in all cases: relative viability (nuclei count vs DMSO), 5 days (fraction); higher = more cells survive
[1] = compound: CCC1=CN=CN=C1N2CCN(CC2)CC3=NC4=C(N3)C=C(C=C4)C(F)(F)F + CS(=O)(=O)N1CCN(Cc2cc3nc(-c4cccc5[nH]ncc45)nc(N4CCOCC4)c3s2)CC1 [Pictilisib] (partner 1 µM)
Method in brief: (§1)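 Lung cancer cell lines in 1536-well plates got either a single drug or a fixed anchor-drug dose together with five library-drug doses (not always all listed) in √10 steps, by pin tool, on the day after seeding. Nuclei were counted after 5 days, and relative viability is the treated-to-vehicle ratio of nuclei counts. Values are medians of duplicate plates.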

[2] = compound: N=C1NC(=O)/C(=C/c2ccc(O)cc2)S1 [Mirin] + CS(=O)(=O)N1CCN(Cc2cc3nc(-c4cccc5[nH]ncc45)nc(N4CCOCC4)c3s2)CC1 [Pictilisib] (partner 1 µM)
Method in brief: as §1

[3] = compound: CCn1c(-c2nonc2N)nc2cnc(Oc3cccc(NC(=O)c4ccc(OCCN5CCOCC5)cc4)c3)cc21 + CS(=O)(=O)N1CCN(Cc2cc3nc(-c4cccc5[nH]ncc45)nc(N4CCOCC4)c3s2)CC1 [Pictilisib] (partner 1 µM)
Method in brief: as §1

[4] = compound: CCC1=CN=CN=C1N2CCN(CC2)CC3=NC4=C(N3)C=C(C=C4)C(F)(F)F + Nc1ncn([C@H]2C[C@H](O)[C@@H](CO)O2)c(=O)n1 [Decitabine] (partner 2 µM)
Method in brief: as §1

| Cell Line | relative viability ([1]; first compound 0.04 µM) | relative viability ([1]; first compound 0.1265 µM) | relative viability ([1]; first compound 0.4 µM) | relative viability ([1]; first compound 1.265 µM) | relative viability ([1]; first compound 4 µM) | relative viability ([2]; first compound 0.25 µM) | relative viability ([2]; first compound 0.7906 µM) | relative viability ([2]; first compound 2.5 µM) | relative viability ([2]; first compound 7.906 µM) | relative viability ([2]; first compound 25 µM) | relative viability ([3]; first compound 0.04 µM) | relative viability ([3]; first compound 0.1265 µM) | relative viability ([3]; first compound 0.4 µM) | relative viability ([3]; first compound 1.265 µM) | relative viability ([3]; first compound 4 µM) | relative viability ([4]; first compound 0.04 µM) | relative viability ([4]; first compound 0.1265 µM) | relative viability ([4]; first compound 0.4 µM) | relative viability ([4]; first compound 1.265 µM) | relative viability ([4]; first compound 4 µM) |
| --- | --- | --- | --- | --- | --- | --- | --- | --- | --- | --- | --- | --- | --- | --- | --- | --- | --- | --- | --- | --- |
| IA-LM | 0.409 | 0.33 | 0.323 | 0.325 | 0.3 | 0.399 | 0.438 | 0.326 | 0.349 | 0.494 | 0.751 | 0.538 | 0.634 | 0.733 | 0.674 |  |  |  |  |  |
| NCI-H441 | 0.571 | 0.435 | 0.451 | 0.435 | 0.418 | 0.531 | 0.521 | 0.528 | 0.37 | 0.362 | 0.582 | 0.541 | 0.438 | 0.386 | 0.376 | 0.239 | 0.212 | 0.21 | 0.264 | 0.315 |
| NCI-H1792 | 0.361 | 0.3 | 0.215 | 0.188 | 0.25 | 0.269 | 0.303 | 0.294 | 0.262 | 0.259 | 0.267 | 0.28 |  | 0.231 | 0.285 | 0.543 | 0.437 | 0.57 |  | 0.523 |
| LXF-289 | 0.744 | 0.793 | 0.762 | 0.646 | 0.754 | 0.744 | 0.747 | 0.803 | 0.844 | 0.701 | 0.923 | 0.761 | 0.539 | 0.56 | 0.516 | 0.348 | 0.325 | 0.426 | 0.343 | 0.419 |
| HCC-827 | 0.978 | 1.04 | 1.03 | 0.957 | 0.994 | 1.16 | 1.08 | 1.04 | 1.03 | 1.21 | 1.08 | 1.06 | 1.09 | 0.824 | 0.933 | 0.504 | 0.286 | 0.34 | 0.307 | 0.357 |
| EMC-BAC-2 | 0.571 | 0.491 | 0.479 | 0.349 | 0.608 | 0.56 | 0.546 | 0.532 | 0.508 | 0.52 | 0.655 | 0.517 | 0.395 | 0.382 | 0.339 |  | 0.945 | 0.998 | 0.924 | 1.05 |
| NCI-H596 | 0.399 | 0.366 | 0.396 | 0.327 | 0.413 | 0.447 | 0.391 | 0.43 | 0.361 | 0.345 | 0.399 | 0.416 | 0.37 | 0.359 | 0.389 | 1 | 1.01 | 0.958 | 0.853 | 1.06 |
| NCI-H1755 | 0.384 | 0.377 | 0.372 | 0.19 | 0.371 | 0.475 | 0.336 | 0.479 | 0.395 | 0.356 | 0.484 | 0.391 | 0.327 | 0.331 | 0.3 | 0.759 | 0.693 | 0.729 | 0.72 | 0.759 |
| NCI-H1993 | 0.837 | 0.808 | 0.708 | 0.765 | 0.834 | 0.748 | 0.698 | 0.893 | 0.818 | 0.782 | 0.885 | 0.855 |  | 0.625 | 0.712 | 0.563 | 0.62 | 0.621 | 0.522 | 0.51 |
| NCI-H2347 | 0.58 | 0.591 | 0.652 |  | 0.671 | 0.564 | 0.622 | 1.71 | 0.749 | 0.595 | 0.94 | 0.648 | 1.05 | 0.556 | 0.563 | 0.666 | 0.551 | 0.63 | 0.613 | 0.529 |
| SW 900 |  |  |  |  |  |  |  |  |  |  |  |  |  |  |  | 0.385 | 0.424 | 0.457 |  | 0.397 |
| NCI-H1437 | 0.511 | 0.404 | 0.395 | 0.336 | 0.439 | 0.525 | 0.436 | 0.487 | 0.272 | 0.165 | 0.383 | 0.39 | 0.257 | 0.443 | 0.283 | 0.537 | 0.529 | 0.531 | 0.589 | 0.487 |
| SK-MES-1 | 0.431 | 0.354 | 0.346 | 0.282 | 0.38 | 0.319 | 0.376 | 0.379 | 0.502 | 0.46 | 0.365 | 0.355 | 0.386 | 0.422 | 0.323 | 0.34 | 0.386 | 0.373 | 0.372 | 0.361 |
| NCI-H1299 | 0.819 | 0.728 | 0.972 | 0.752 | 0.673 | 0.811 | 0.823 | 0.787 | 0.688 | 0.602 | 0.956 | 0.735 | 0.74 | 0.618 | 0.393 |  |  |  |  |  |
| NCI-H1563 | 0.643 | 0.684 | 0.65 | 0.616 | 0.698 | 0.619 | 0.618 | 0.651 | 0.662 | 0.538 | 0.629 | 0.678 | 0.638 | 0.66 | 0.569 |  |  |  |  |  |
| Calu-6 | 1.07 | 0.877 | 0.865 | 0.822 | 0.73 | 0.997 | 0.934 | 0.862 | 0.761 | 0.597 | 1.06 | 0.808 | 0.797 | 0.54 | 0.403 |  |  |  |  |  |
| NCI-H1703 | 0.238 | 0.277 | 0.263 | 0.232 | 0.227 | 0.25 | 0.252 | 0.27 |  | 0.226 | 0.242 | 0.312 | 0.206 | 0.215 | 0.188 |  |  |  |  |  |
| EBC-1 | 0.459 | 0.318 | 0.333 | 0.261 | 0.352 | 0.456 | 0.343 | 0.378 | 0.238 | 0.204 | 0.355 | 0.319 | 0.35 | 0.31 | 0.332 |  |  |  |  |  |
| NCI-H2342 |  |  |  |  |  |  |  |  |  |  |  |  |  |  |  | 0.689 | 0.728 | 0.707 | 0.575 | 0.513 |
| NCI-H1648 |  |  |  |  |  |  |  |  |  |  |  |  |  |  |  | 0.502 |  |  | 0.511 | 0.502 |
| NCI-H522 |  |  |  |  |  |  |  |  |  |  |  |  |  |  |  | 0.666 | 0.63 | 0.821 | 0.621 | 0.797 |
